Assay results published in patent US20180200257A1, “METHODS FOR THE TREATMENT OF INFLAMMATORY DISORDERS” (Galapagos NV, priority 2015, published 2018).

Tested on: subjects with moderately to severely active RA who have an inadequate response to methotrexate (MTX)
Assay: Study 1 (add-on to MTX) - ACR responses (ACR20/50/70)
Format: in vivo, human
From the text: The terms “ACR20”, “ACR50” and “ACR70” as used herein are scores which indicate how much a patient's rheumatoid arthritis has improved according to criteria set out by the American College of Rheumatology (ACR). The ACR score represents a percentage. An ACR20 score means that a person's RA has improved by 20%, an ACR50 score means it has improved by 50%, and an ACR70 score means it has improved by 70%. Specifically, to qualify for an ACR20 score, a person with RA must have at least 20% fewer tender joints and at least 20% fewer swollen joints. In addition the patient must show a 20% improvement in at least three of the following five areas: the person's overall (global) assessment of his or her own RA, the physician's global assessment of the person's RA, the person's assessment of his or her own pain, the person's assessment of his or her own physical functioning, and the results of an erythrocyte sedimentation rate or C-reactive protein (CRP) blood test (both of which test for inflammation). ACR50 and ACR70 scores use the same criteria but require 50% and 70% improvement, respectively, (Felson et al., 1993). In the data presented herein the CRP blood test is used.
Double-blind, placebo-controlled add on study in subjects with moderately to severely active RA who have an inadequate response to methotrexate (MTX) (oral or parenteral).
595 subjects randomized to one of 6 dose regimens of Compound 1 (dosed as [Compound 1:HCl:3H2O]) (3 dose levels administered either once or twice daily) or placebo on top of each subject's stable dose of MTX.
Compound 1 (dosed as [Compound 1:HCl:3H2O]) is dosed for twelve weeks once daily (q.d.) (50 mg, 100 mg or 200 mg) or twice daily (b.i.d.) (25 mg, 50 mg or 100 mg); or placebo.
At Week 12, the subjects on placebo who have not achieved 20% improvement in swollen joint count (SJC66) and tender joint count (TJC68) are re-randomized automatically to receive Compound 1 (dosed as a [Compound 1:HCl:3H2O]) either at 100 mg q.d. or 50 mg b.i.d. doses in a blinded fashion; subjects on 50 mg q.d. who have not achieved 20% improvement in SJC66 and TJC68 will be assigned to 100 mg q.d. and subjects on 25 mg b.i.d. that have not achieved a 20% improvement in SJC66 and TJC68 will be assigned to 50 mg b.i.d. Subjects who switch treatment at week 12 are handled as if they discontinued at week 12 for the purpose of statistical analysis, whereas subjects in the other groups will maintain their randomized treatment until Week 24.
The American College of Rheumatology (ACR) composite score, which evaluates clinical improvement relative to an initial assessment, is a commonly accepted efficacy end point for clinical trials in patients with rheumatoid arthritis. The ACR score correspond to a percentage improvement in pre-set parameters, and therefore measures the evolution of the disease in a patient. For example, ACR20 denotes at least 20% improvement in tender and swollen joint counts and in three of the following end points: global assessment by the patient, global assessment by the doctor, C reactive protein (CRP), patient's pain Visual Analogue Scale and Health Assessment Questionnaire Score. The number of swollen joints, ESR and CRP correlate with radiographic progression of joint damage, whereas tender joint counts, as well as global assessments by doctors and patients, and patients' reports of pain, are sensitive to change in clinical outcomes. Physical function, as assessed by the Health Assessment Questionnaire Score, is a potent predictor of the risk of disability in rheumatoid arthritis (Felson and American College of Rheumatology Committee to Reevaluate Improvement Criteria, 2007; Felson et al., 1993).
In particular, the list of parameters used to assess ACR score can be found in the Table XCVI below and the results of the ACR responses at week 12 via either NRI or LOCF are shown in the tables below. The Hommel-corrected p-value for the pairwise comparisons of each group with placebo is shown. […]

[1] = 2 × 50 mg b.i.d., week 12, 12 weeks results
[2] = 2 × 50 mg b.i.d., week 12, 24 weeks results
[3] = 2 × 50 mg b.i.d., week 16, 24 weeks results
[4] = 2 × 50 mg b.i.d., week 20, 24 weeks results
[5] = 2 × 50 mg b.i.d., week 24, 24 weeks results
[6] = 2 × 50 mg b.i.d., at week 1, 12 weeks results
[7] = 2 × 50 mg b.i.d., at week 1, 24 weeks results
[8] = 2 × 100 mg b.i.d., week 2, 12 weeks results
[9] = 2 × 100 mg b.i.d., week 2, 24 weeks results
[10] = 2 × 100 mg b.i.d., week 4, 12 weeks results
[11] = 2 × 100 mg b.i.d., week 4, 24 weeks results
[12] = 2 × 100 mg b.i.d., week 8, 12 weeks results
[13] = 2 × 100 mg b.i.d., week 8, 24 weeks results
[14] = 2 × 100 mg b.i.d., week 12, 12 weeks results
[15] = 2 × 100 mg b.i.d., week 12, 24 weeks results
[16] = 2 × 100 mg b.i.d., week 16, 24 weeks results
[17] = 2 × 100 mg b.i.d., week 20, 24 weeks results
[18] = 2 × 100 mg b.i.d., week 24, 24 weeks results
[19] = 2 × 100 mg b.i.d., at week 1, 12 weeks results
[20] = 2 × 100 mg b.i.d., at week 1, 24 weeks results

With `O=C(Nc1nc2cccc(-c3ccc(CN4CCS(=O)(=O)CC4)cc3)n2n1)C1CC1` [Compound 1, cyclopropanecarboxylic acid {5-[4-(1,1-dioxo-thiomorpholin-4-ylmethyl)-phenyl]-[1,2,4]triazolo[1,5-a]pyridin-2-yl}-amide] the “ACR70 (NRI)” value (2 × 50 mg b.i.d., week 8, 24 weeks results) was 14.1%, the “ACR20 (LOCF)” value [1] was 58.8% and the “ACR20 (NRI)” value [1] was 58.8%. The “ACR50 (LOCF)” value [1] was 34.1%, the “ACR50 (NRI)” value [1] was 34.1% and the “ACR70 (LOCF)” value [1] was 18.8%. For the same compound, the “ACR70 (NRI)” value [1] was 18.8%, the “ACR20 (LOCF)” value [2] was 60.0% and the “ACR20 (NRI)” value [2] was 58.8%. For the same compound, the “ACR50 (LOCF)” value [2] was 34.1%, the “ACR50 (NRI)” value [2] was 34.1% and the “ACR70 (LOCF)” value [2] was 18.8%. For the same compound, the “ACR70 (NRI)” value [2] was 18.8%, the “ACR20 (LOCF)” value [3] was 67.1% and the “ACR20 (NRI)” value [3] was 64.7%. For the same compound, the “ACR50 (LOCF)” value [3] was 32.9%, the “ACR70 (LOCF)” value [3] was 21.2% and the “ACR20 (LOCF)” value [4] was 68.2%. For the same compound, the “ACR20 (NRI)” value [4] was 65.9%, the “ACR50 (LOCF)” value [4] was 41.2% and the “ACR70 (LOCF)” value [4] was 22.4%. The “ACR20 (LOCF)” value [5] was 67.1%, the “ACR20 (NRI)” value [5] was 60.0% and the “ACR50 (LOCF)” value [5] was 38.8%. For the same compound, the “ACR70 (LOCF)” value [5] was 24.7%, the “ACR20 (LOCF)” value [6] was 22.4% and the “ACR20 (NRI)” value [6] was 22.4%. For the same compound, the “ACR50 (LOCF)” value [6] was 7.1%, the “ACR50 (NRI)” value [6] was 7.1% and the “ACR70 (LOCF)” value [6] was 2.4%. The “ACR70 (NRI)” value [6] was 2.4%, the “ACR20 (LOCF)” value [7] was 22.4% and the “ACR20 (NRI)” value [7] was 22.4%. The “ACR50 (LOCF)” value [7] was 7.1%, the “ACR50 (NRI)” value [7] was 7.1% and the “ACR70 (LOCF)” value [7] was 2.4%. The “ACR70 (NRI)” value [7] was 2.4%, the “ACR20 (LOCF)” value [8] was 53.6% and the “ACR20 (NRI)” value [8] was 54.8%. The “ACR50 (LOCF)” value [8] was 22.6%, the “ACR50 (NRI)” value [8] was 21.4% and the “ACR70 (LOCF)” value [8] was 4.8%. For the same compound, the “ACR70 (NRI)” value [8] was 3.6%, the “ACR20 (LOCF)” value [9] was 56.0% and the “ACR20 (NRI)” value [9] was 54.8%. For the same compound, the “ACR50 (LOCF)” value [9] was 22.6%, the “ACR50 (NRI)” value [9] was 21.4% and the “ACR70 (LOCF)” value [9] was 4.8%. The “ACR70 (NRI)” value [9] was 3.6%, the “ACR20 (LOCF)” value [10] was 67.9% and the “ACR20 (NRI)” value [10] was 69.0%. The “ACR50 (LOCF)” value [10] was 34.5%, the “ACR50 (NRI)” value [10] was 35.7% and the “ACR70 (LOCF)” value [10] was 9.5%. The “ACR70 (NRI)” value [10] was 10.7%, the “ACR20 (LOCF)” value [11] was 67.9% and the “ACR20 (NRI)” value [11] was 67.9%. The “ACR50 (LOCF)” value [11] was 34.5%, the “ACR50 (NRI)” value [11] was 34.5% and the “ACR70 (LOCF)” value [11] was 10.7%. The “ACR70 (NRI)” value [11] was 10.7%, the “ACR20 (LOCF)” value [12] was 75.0% and the “ACR20 (NRI)” value [12] was 75.0%. For the same compound, the “ACR50 (LOCF)” value [12] was 45.2%, the “ACR50 (NRI)” value [12] was 45.2% and the “ACR70 (LOCF)” value [12] was 26.2%. The “ACR70 (NRI)” value [12] was 27.4%, the “ACR20 (LOCF)” value [13] was 75.0% and the “ACR20 (NRI)” value [13] was 75.0%. For the same compound, the “ACR50 (LOCF)” value [13] was 45.2%, the “ACR50 (NRI)” value [13] was 45.2% and the “ACR70 (LOCF)” value [13] was 27.4%. The “ACR70 (NRI)” value [13] was 27.4%, the “ACR20 (LOCF)” value [14] was 79.8% and the “ACR20 (NRI)” value [14] was 79.8%. For the same compound, the “ACR50 (LOCF)” value [14] was 56.0%, the “ACR50 (NRI)” value [14] was 54.8% and the “ACR70 (LOCF)” value [14] was 29.8%. The “ACR70 (NRI)” value [14] was 31.0%, the “ACR20 (LOCF)” value [15] was 81.0% and the “ACR20 (NRI)” value [15] was 79.8). The “ACR50 (LOCF)” value [15] was 57.1%, the “ACR50 (NRI)” value [15] was 54.8% and the “ACR70 (LOCF)” value [15] was 31.0%. The “ACR70 (NRI)” value [15] was 31.0%, the “ACR20 (LOCF)” value [16] was 84.5% and the “ACR20 (NRI)” value [16] was 82.1%. For the same compound, the “ACR50 (LOCF)” value [16] was 64.3%, the “ACR70 (LOCF)” value [16] was 36.9% and the “ACR20 (LOCF)” value [17] was 88.1%. For the same compound, the “ACR20 (NRI)” value [17] was 84.5%, the “ACR50 (LOCF)” value [17] was 61.9% and the “ACR70 (LOCF)” value [17] was 36.9%. For the same compound, the “ACR20 (LOCF)” value [18] was 86.9%, the “ACR20 (NRI)” value [18] was 79.8% and the “ACR50 (LOCF)” value [18] was 61.9%. The “ACR70 (LOCF)” value [18] was 42.9%, the “ACR20 (LOCF)” value [19] was 33.3% and the “ACR20 (NRI)” value [19] was 34.5%. The “ACR50 (LOCF)” value [19] was 7.1%, the “ACR50 (NRI)” value [19] was 7.1% and the “ACR70 (LOCF)” value [19] was 4.8%. The “ACR70 (NRI)” value [19] was 4.8%, the “ACR20 (LOCF)” value [20] was 34.5% and the “ACR20 (NRI)” value [20] was 34.5%. For the same compound, the “ACR50 (LOCF)” value [20] was 7.1%, the “ACR50 (NRI)” value [20] was 7.1% and the “ACR70 (LOCF)” value [20] was 4.8%. For the same compound, the “ACR70 (NRI)” value [20] was 4.8%.
